Assays:
PTGER2 (EP2) = PTGER2 (EP2) (Homo sapiens (Human), UniProt P43116); test: hEP2 b-arrestin assay (PathHunter HEK 293 PTGER2 b-arrestin cells); type: cell-based; settings: antagonistic activity, beta-arrestin assay; read-out: hEP2 b-arr IC50
Description: Plate is pre-incubated 15 minutes at 37° C. Then five microliters of PGE2 (final conc. 5 μM) are transferred into the assay plate. Plate is incubated 120 minutes at 37° C.
(each concentration is measured in duplicate)

PTGER4 (EP4) = PTGER4 (EP4) (Homo sapiens (Human), UniProt P35408)
EP2 = EP2 (Homo sapiens (Human), UniProt P43116); test: hEP2 cAMP assay (SF295 glioblastoma cells, HTRF cAMP); type: cell-based; settings: antagonistic activity
In short: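 PGE2-driven cAMP accumulation was measured by HTRF in SF295 cells, which express endogenous EP2 only. Cells in assay buffer with 2 mM IBMX were pre-incubated 45 min at RT, then incubated 30 min at RT. Detection used competition between cellular cAMP and d2-cAMP for a cryptate anti-cAMP antibody.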

EP4 = EP4 (Homo sapiens (Human), UniProt P35408); test: hEP4 cAMP assay (BT549 breast cancer cells, HTRF cAMP); type: cell-based; settings: antagonistic activity, PGE2 6 nM
In short: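 BT549 breast cancer cells (endogenous EP4) in HBSS/20 mM HEPES/0.2% BSA/2 mM IBMX preincubated 45 min at RT with compound, then stimulated 30 min at RT with 6 nM PGE2 (final). cAMP read by competitive HTRF immunoassay, signal inversely proportional to cAMP.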

EP4, sequence (P35408 whole entry): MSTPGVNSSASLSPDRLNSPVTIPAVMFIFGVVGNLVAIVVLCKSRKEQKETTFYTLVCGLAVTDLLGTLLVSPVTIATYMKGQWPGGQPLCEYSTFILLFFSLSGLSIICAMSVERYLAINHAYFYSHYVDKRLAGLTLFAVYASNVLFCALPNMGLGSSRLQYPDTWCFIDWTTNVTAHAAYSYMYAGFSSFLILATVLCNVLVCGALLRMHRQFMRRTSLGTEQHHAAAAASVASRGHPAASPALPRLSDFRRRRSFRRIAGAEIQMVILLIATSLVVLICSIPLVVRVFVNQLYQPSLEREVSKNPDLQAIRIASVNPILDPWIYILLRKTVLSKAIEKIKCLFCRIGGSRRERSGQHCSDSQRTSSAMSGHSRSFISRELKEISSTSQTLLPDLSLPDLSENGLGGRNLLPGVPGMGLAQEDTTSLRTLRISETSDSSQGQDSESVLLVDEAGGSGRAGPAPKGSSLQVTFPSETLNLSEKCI
PTGER4 (EP4), sequence (P35408 whole entry): as above
EP2, sequence (P43116 whole entry): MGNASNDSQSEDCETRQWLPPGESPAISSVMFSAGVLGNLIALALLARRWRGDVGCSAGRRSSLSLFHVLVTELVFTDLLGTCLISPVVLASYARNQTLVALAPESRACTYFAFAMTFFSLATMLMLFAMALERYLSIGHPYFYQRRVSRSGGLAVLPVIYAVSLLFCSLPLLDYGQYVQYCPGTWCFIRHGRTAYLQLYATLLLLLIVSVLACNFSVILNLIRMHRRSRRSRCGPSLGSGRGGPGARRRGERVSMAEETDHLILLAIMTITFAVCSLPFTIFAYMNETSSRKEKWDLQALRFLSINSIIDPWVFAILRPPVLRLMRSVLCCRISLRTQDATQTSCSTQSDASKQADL
PTGER2 (EP2), sequence (P43116 whole entry): as above

SMILES | IC50 (PTGER2 (EP2)) | IC50 (PTGER4 (EP4)) | IC50 (EP2) | IC50 (EP4) | IC50 (EP4; BT549 cells)
CSc1cc(-c2cc(NCCc3ccc4scc(C#N)c4c3)ncn2)ccc1C(=O)O [Ex 212] | 0.255 µM | 0.34 µM | 0.05 µM | 0.253 µM | –
COc1cc2sccc2cc1CCNc1cc(-c2ccc(CC(=O)O)c(SC)c2)ncn1 [Ex 224] | 0.084 µM | 0.26 µM | 0.061 µM | 0.173 µM | –
CSc1cc(-c2cc(NCCc3ccc4scnc4c3)ncn2)ccc1C(=O)O [Ex 237] | 0.388 µM | 0.908 µM | 0.16 µM | 0.335 µM | –
CSc1cc(-c2cc(NCCc3ccc4cccc(F)c4c3)ncn2)ccc1C(=O)O [Ex 243] | 0.493 µM | 0.147 µM | 2.1 µM | 0.355 µM | –
CCOc1cc(-c2cc(NCCc3ccc4scc(C#N)c4c3)ncn2)ccc1C(=O)O [Ex 253] | 0.521 µM | 0.671 µM | 0.158 µM | 0.373 µM | –
COc1c(CCNc2cc(-c3cc(F)c(C(=O)O)c(OC4CCC4)c3)ncn2)c(F)c(F)c2cc(C)oc12 [Ex 262] | 1.3 µM | 0.186 µM | 0.855 µM | 0.424 µM | –
Cc1c(CCNc2cc(-c3ccc(C(=O)O)c(OC4CCC4)c3)ncn2)ccc2sccc12 [Ex 268] | 0.025 µM | 0.688 µM | 0.047 µM | 0.342 µM | –
COc1cc2c(cc1CCNc1cc(-c3ccc(C(=O)O)c(CC(C)C)c3)ncn1)OCCO2 [Example 416] | 0.245 µM | 0.082 µM | 0.123 µM | – | 0.083 µM

More lines, main results first:

IC50 (PTGER2 (EP2)) | IC50 (PTGER4 (EP4)) | IC50 (EP2) | IC50 (EP4) | SMILES | IC50 (EP4; BT549 cells)
1.64 µM | 0.588 µM | 6.51 µM | 0.434 µM | CCOc1cc(-c2cc(NCCc3ccc4cccc(F)c4c3)ncn2)ccc1C(=O)O [Ex 269] | –
1.52 µM | 0.404 µM | 5.66 µM | 0.435 µM | CSc1cc(-c2cc(NCCc3c(F)cc4ccccc4c3F)ncn2)ccc1CC(=O)O [Ex 270] | –
0.289 µM | 0.221 µM | 0.14 µM | 0.455 µM | N#Cc1csc2ccc(CCNc3cc(-c4ccc(C(=O)O)c(OC5CCC5)c4)ncn3)cc12 [Ex 273] | –
0.144 µM | 0.964 µM | 0.358 µM | 0.525 µM | CCOc1cc(-c2cc(NCCc3ccc4sccc4c3C)ncn2)ccc1CC(=O)O [Ex 289] | –
0.034 µM | 1.6 µM | 0.061 µM | 0.583 µM | CCOc1cc(-c2cc(NCCc3ccc4sccc4c3C)ncn2)ccc1C(=O)O [Ex 296] | –
0.057 µM | 1.35 µM | 0.232 µM | 0.653 µM | CSc1cc(-c2cc(NCCc3cc4ccsc4cc3C)ncn2)ccc1CC(=O)O [Ex 305] | –
3.46 µM | 0.378 µM | 9.23 µM | 0.701 µM | CCOc1cc(-c2cc(NCCc3ccc4cccc(F)c4c3)ncn2)ccc1CC(=O)O [Ex 314] | –
0.126 µM | 1.07 µM | 0.16 µM | 0.91 µM | CSc1cc(-c2cc(NCCc3ccc4sccc4c3C)ncn2)ccc1CC(=O)O [Ex 326] | –
0.1 µM | 0.012 µM | 0.268 µM | 0.003 µM | CCOc1cc(-c2cc(NCCc3c(F)cc4ccccc4c3F)ncn2)sc1C(=O)O [Ex 335] | –

Reference: US11839613B2, “Pyrimidine derivatives as PGE2 receptor modulators” (IDORSIA PHARMACEUTICALS LTD, priority 2017, dated 2023)
